The values that follow come from ChEMBL document CHEMBL4725320 (Bioorg Med Chem Lett, 2020).

Assay [1] addresses T1, Nuclear receptor subfamily 1 group D member 1 (Homo sapiens, UniProt P20393).
T1 sequence (P20393 whole entry): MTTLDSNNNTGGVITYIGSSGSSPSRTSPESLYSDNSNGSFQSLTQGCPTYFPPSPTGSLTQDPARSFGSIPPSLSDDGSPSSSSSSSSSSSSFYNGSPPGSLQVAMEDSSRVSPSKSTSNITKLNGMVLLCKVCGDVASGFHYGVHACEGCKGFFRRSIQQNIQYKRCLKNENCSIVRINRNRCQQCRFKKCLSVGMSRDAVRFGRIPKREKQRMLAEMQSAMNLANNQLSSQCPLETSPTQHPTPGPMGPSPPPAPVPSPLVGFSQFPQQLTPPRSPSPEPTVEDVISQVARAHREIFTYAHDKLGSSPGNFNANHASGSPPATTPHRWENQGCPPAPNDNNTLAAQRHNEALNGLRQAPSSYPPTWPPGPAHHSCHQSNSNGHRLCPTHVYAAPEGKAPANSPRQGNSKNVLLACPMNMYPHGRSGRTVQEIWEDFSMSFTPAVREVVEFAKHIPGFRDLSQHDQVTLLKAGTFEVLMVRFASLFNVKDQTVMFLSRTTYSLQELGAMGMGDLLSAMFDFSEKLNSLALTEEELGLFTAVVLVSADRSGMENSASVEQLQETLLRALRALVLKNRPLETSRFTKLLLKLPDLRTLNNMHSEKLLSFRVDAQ
Description: Agonist activity at Rev-Erb alpha (unknown origin) by FRET assay. The class given is single protein.

Assay [2] deals with T1, Nuclear receptor subfamily 1 group D member 1. Description: Antagonist activity at Rev-Erb alpha (unknown origin) by BMAL1-luciferase reporter assay.
The target of assay [3] is Nuclear receptor subfamily 1 group D member 2 (Homo sapiens) (UniProt Q14995). Description: Antagonist activity at Rev-Erb beta (unknown origin) by RORE-luciferase reporter assay.
Sequence of Nuclear receptor subfamily 1 group D member 2 (Homo sapiens) (Q14995 whole entry, looked up, the tested form may be a part): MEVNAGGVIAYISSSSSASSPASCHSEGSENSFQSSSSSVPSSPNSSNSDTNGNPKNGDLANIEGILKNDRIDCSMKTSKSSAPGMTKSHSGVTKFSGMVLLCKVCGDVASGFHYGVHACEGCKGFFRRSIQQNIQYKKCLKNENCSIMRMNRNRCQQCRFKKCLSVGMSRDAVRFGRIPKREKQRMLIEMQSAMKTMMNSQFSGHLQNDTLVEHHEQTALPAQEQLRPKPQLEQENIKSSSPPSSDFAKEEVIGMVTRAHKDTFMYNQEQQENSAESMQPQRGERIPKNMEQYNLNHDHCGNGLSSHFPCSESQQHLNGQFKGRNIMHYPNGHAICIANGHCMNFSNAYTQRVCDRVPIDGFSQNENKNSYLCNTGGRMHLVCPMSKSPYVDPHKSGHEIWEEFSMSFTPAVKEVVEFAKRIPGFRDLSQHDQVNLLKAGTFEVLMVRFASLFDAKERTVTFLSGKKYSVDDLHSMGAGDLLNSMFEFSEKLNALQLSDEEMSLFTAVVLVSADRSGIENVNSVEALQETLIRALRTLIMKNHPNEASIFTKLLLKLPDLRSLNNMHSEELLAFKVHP
Assay [4] has as its target T1, Nuclear receptor subfamily 1 group D member 1. Description: Inverse agonist activity at Rev-Erb alpha LBD (unknown origin) by FRET assay.
Assay [5] has the same target. Description: Agonist activity at Rev-Erb alpha (unknown origin) by BMAL1-luciferase reporter assay.

Structures are written as SMILES.

In turn, `FC(F)(F)c1ccc(-c2cccnc2)c(Oc2ccc3nnc(Cl)n3n2)c1` displayed an EC50 in assay [1] of under 1 µM.
The same measure, in the same setting: then `Cn1nc(Oc2cc(C(F)(F)F)ccc2-c2ccsc2Cl)c2sccc2c1=O`, with 0.52 µM.
Regarding `Cc1cc(Cl)cc(CN(Cc2ccc(Cl)cc2)Cc2ccc([N+](=O)[O-])s2)c1`, the figures for the EC50 in assay [1] and in assay [2] were 0.05 µM and 2.05 µM, respectively.
Consider `O=C(Nc1ccccc1)N1CCC(CN(Cc2ccc(Cl)cc2)Cc2ccc([N+](=O)[O-])s2)CC1`, for which, in assay [2], a half-maximal effect (EC50) was put at 1.3 µM.
`CN1CCN(Cc2cc(CNC3(c4ccccc4F)CCCC3)ccc2O)CC1`: the half-maximal effective concentration (EC50) in assay [3] amounted to 30 µM.
For `CCCCCNC(=O)N1CCC(CN(Cc2ccc(Cl)cc2)Cc2ccc([N+](=O)[O-])s2)C1` (stereo not given) [SR9011], the 50% effective concentration (EC50) in assay [1] was found to be 0.71 µM. This lies in the sub-micromolar range.
The compound `FC(F)(F)c1ccc(-c2ccc3ncc(Cl)n3c2)c(Oc2nn3ccnc3c3ccsc23)c1` had an EC50 in assay [1] of 5.51 µM.
Regarding `CCOC(=O)C1Cc2ccccc2CN1C(=O)c1ccc(SC)s1` (stereo not given), a half-maximal effect in assay [2] (EC50) was put at 0.47 µM. That is a sub-micromolar value.
For the compound `COCCNc1oc(-c2ccc(N(C)Cc3ccc(Cl)cc3)cc2)nc1C#N`, in assay [4], the response was half-maximal at 0.15 µM (EC50). This lies in the sub-micromolar range.
`Cc1cc(F)ccc1-c1ccc(C(F)(F)F)cc1Oc1nn(C)c(=O)c2ccsc12` gave an EC50 in assay [1] of 1.13 µM.
`O=C(c1cccc2ccccc12)N1Cc2ccccc2CC1CNCc1ccccc1` (stereo not given): the 50% effective concentration (EC50) in assay [5] worked out at 3 µM.
Turning to `CC(C)(C)Oc1ccc(OC[C@@H]2Cc3cc(F)ccc3CN2C(=O)c2cccc3ccccc23)cc1`, the EC50 in assay [1] turned out to be 0.068 µM. In other words, the double-digit nanomolar range.
Regarding `CCOC(=O)C1Cc2ccccc2CN1C(=O)c1ccc(C)o1` (stereo not given), the midpoint of the response in assay [2], the EC50, lay at 1.3 µM. This counts as single-digit micromolar.
As for `FC(F)(F)c1ccc(-c2cncnc2)c(Oc2ccc3nnc(Cl)n3n2)c1`, the EC50 in assay [1] is under 5 µM.
